Experiments:
[1] = test system: SH-SY5Y cells; assay: Inhibition of decline of mitochondrial potential (JC-1); format: cell-based; conditions: 50 μM 6-OHDA, negative control 0
Method: (§1) SH-SY5Y cells (CRL-2266, ATCC) were used to evaluate the coumestrol's effect of protecting nerve cells from neurotoxins. The cells were cultured in a medium comprising 90% DMEM, 10% fetal calf serum, 100 IU/mL penicillin and 100 μg/mL streptomycin under the condition of 37° C. and 5% CO2. When the cells grew confluent, they were harvested with trypsin, diluted on a 96-well plate to 1×10^4 cells per well, and then grafted onto a culture dish. 24 hours later, after treating the cultured cells with 0.01, 0.1 or 1 μM coumestrol, the cells were treated with 50 μM 6-OHDA 2 hours later to induce cytotoxicity. A negative control group was treated only with 50 μM 6-OHDA. Also, mitochondrial potential of the cells was measured using the JC-1 fluorescent reagent (Beyotime, China).

[2] = test system: aP2, Acrp30, PPAR, SREBP1c and FAS mRNA in adipocytes; assay: Expression of adipocyte-specific genes by Q-PCR; format: cell-based, mouse; design: dose or concentration left out as unconfirmed; conditions: coumestrol, relative to untreated group
Method: (§2) In order to evaluate the coumestrol's effect of inhibiting adipocyte differentiation, […] coumestrol (CMS) was administered continuously while 3T3-L1 mouse preadipocytes (CL-173, ATCC) were differentiated into adipocytes. […] Rosiglitazone (Rosi), which is known to promote adipocyte differentiation, was used as positive control and […] berberine (BBR), which is known to inhibit adipocyte differentiation, was used as negative control. On the day when adipocyte differentiation was started and on days 2, 4 and 6, the test substance was administered and the medium was changed. The adipocyte differentiation was carried out for about 7 days when the adipocyte differentiation was completed in the positive control group.
Also, expression of adipocyte-specific genes in the in the adipocytes was investigated by Q-PCR. The genes tested were aP2 (fatty acid binding protein 4, adipocyte specific type), Acrp30 (adiponectin), PPAR (peroxisome proliferator-activated receptor), SREBP1c (sterol regulatory element binding protein 1c) and FAS (fatty acid synthase), which are used as molecular markers of adipocyte differentiation and fatty acid synthesis.

[3] = test system: 3T3-L1 mouse preadipocytes; assay: Inhibition of adipocyte differentiation, Oil Red O staining of triglycerides; format: cell-based; design: dose or concentration left out as unconfirmed; conditions: coumestrol administered continuously, about 7 days differentiation; compared with rosiglitazone and berberine
Method: as §2
Then, differentiation of adipocytes was identified by staining triglycerides in the cells with Oil Red O (Sigma).

[4] = cited from earlier work
[5] = test system: SH-SY5Y cells; assay: cells; format: cell-based; conditions: Homo sapiens, read-out: Viability of nerve cells (%)
Method: as §1

[6] = test system: SH-SY5Y cells; assay: Scavenging of reactive oxygen species produced by 6-OHDA (DCFH-DA); format: cell-based; conditions: 50 μM 6-OHDA, 6 hours, relative to negative control
Method: The same cells used in Test Example 4-1 were cultured under the same condition. The cultured cells were treated with 0.01, 0.1 or 1 μM coumestrol and then treated with 50 μM 6-OHDA 2 hours later to induce increase of reactive oxygen species (ROS) in the cells. After culturing the cells for 6 hours in an incubator, the quantity of ROS in the cells was measured using DCFH-DA and the decrease of the ROS was evaluated relative to the negative control group. The fluorescence intensity of DCF was measured with the Wallac VICTOR2 fluorometer (Wallac, Turku, Finland) at excitation wavelength of 485 nm and emission wavelength of 530 nm. ROS scavenging effect (%) relative to the negative control group was calculated from the measured fluorescence intensity.

[7] = test system: Human umbilical vein endothelial cells (HUVECs); assay: Nicotine detoxifying effect, viability of vascular endothelial cells; format: cell-based; conditions: HUVEC, 25 mM nicotine, 24 hours, relative to untreated group, nicotine only 55.1
Method: Human umbilical vein endothelial cells (HUVECs, CRL-2873, ATCC) were used to evaluate the coumestrol's effect against nicotine which is a major toxic substance included in cigarettes. HUVECs were cultured under the condition of 37° C. and 5% CO2 using the microvascular endothelial cell growth medium-2 (EGM-2). The cells were seeded onto a 96-well plate, with 2×10^4 cells per well, and cultured for about 24 hours in a medium containing 10% FBS until ˜80% confluency. After treating with nicotine to a final concentration of 25 mM, the cells were cultured for 24 hours with 0.1, 1 or 10 μM coumestrol, except for the negative control group.

[8] = test system: mouse spleen cells; assay: Immune cell proliferating activity (CCK-8); format: cell-based, ICR mouse; conditions: 44 hours, relative to untreated group (100)
Method: Spleen was aseptically removed from an ICR mouse sacrificed by cervical dislocation. The spleen was washed with an RPMI 1640 solution and lightly smashed with a sterilized glass rod to isolate the mouse spleen cells. A suspension of the isolated cells was passed through a 200-mesh stainless steel sieve (Sigma Chemical Co., St. Louis, Mo., USA) and centrifuged for 10 minutes at 4° C. and 3,000 rpm in a 50-mL centrifuge tube. The resulting cell pellets were suspended in a lysing buffer (Tris-buffered ammonium chloride; 0.87% NH4Cl, pH 7.2) for 5 minutes to remove red blood cells. The cells were washed twice with RPMI by centrifugal washing, diluted to 5.0×10^6 cells/mL in 10%-FBS RPMI 1640, and seeded on a 96-well plate, with 90 μL per each well, for measurement of cell proliferating activity. After preparing a stock solution such that the final concentration of coumestrol was 0.1 or 1 μM and adding 10 μL to each well, the cells were cultured for 44 hours and the proliferating activity of the spleen cells was measured (CCK-8, Dojindo Laboratories, Japan). 10 μL of 10 μg/mL LPS was used as positive control.

O=c1oc2cc(O)ccc2c2oc3cc(O)ccc3c12 [Coumestrol, 3,9-dihydroxy-6H-benzofuro(3,2-c)(1)benzopyran-6-one]
Effect of inhibiting decline of mitochondrial potential (%) ([1]; 0.01 μM): 13.2%
Effect of inhibiting decline of mitochondrial potential (%) ([1]; 0.1 μM): 29.1%
Effect of inhibiting decline of mitochondrial potential (%) ([1]; 1 μM): 43.0%
mRNA expression of the molecular markers of adipocyte differentiation and fatty acid synthesis [2]: remarkably decreased
adipocyte differentiation (Oil Red O stained area) [3]: remarkably decreased
bioavailability upon oral administration [4]: about 11.7%
viability at 0.01 µM [5]: 94.4%
viability at 0.1 µM [5]: 96.5%
viability at 1 µM [5]: 98.2%
ROS scavenging effect (%) ([6]; 0.01 μM): 73.0%
ROS scavenging effect (%) ([6]; 0.1 μM): 86.7%
ROS scavenging effect (%) ([6]; 1 μM): 93.5%
viability at 0.1 µM ([7]; 0.1 μM): 67.2%
viability at 1 µM ([7]; 1 μM): 72.2%
viability at 10 µM ([7]; 10 μM): 88.9%
activity at 0.1 µM ([8]; 0.1 μM): 278%
activity at 1 µM ([8]; 1 μM): 283%

From patent US9655878B2, “Composition comprising coumestrol or a bean extract containing coumestrol” (AMOREPACIFIC CORPORATION, priority 2010, dated 2017)
